From patent US12617837B2, “Composition for use in treatment of allergic diseases” (UNIVERSITY OF TSUKUBA, priority 2019, dated 2026)

What was measured:
[1] = target: T1, Clec10a-Fc (Mus musculus, UniProt P49300); experiment: Sugar conjugate (glycan) microarray analysis of Clec10a-Fc (Table 7); type: binding; conditions: for Signal value, Clec10a-Fc: glycan microarray probed with Clec10a-Fc; for Signal value, Clec10a-Fc with EDTA: glycan microarray probed with Clec10a-Fc with EDTA
T1 construct: cloning the extracellular region of mouse Clec10a into a pME18S expression vector; made in house; host or cells: HEK293T cells
T1 sequence (P49300 57-304 limits assumed): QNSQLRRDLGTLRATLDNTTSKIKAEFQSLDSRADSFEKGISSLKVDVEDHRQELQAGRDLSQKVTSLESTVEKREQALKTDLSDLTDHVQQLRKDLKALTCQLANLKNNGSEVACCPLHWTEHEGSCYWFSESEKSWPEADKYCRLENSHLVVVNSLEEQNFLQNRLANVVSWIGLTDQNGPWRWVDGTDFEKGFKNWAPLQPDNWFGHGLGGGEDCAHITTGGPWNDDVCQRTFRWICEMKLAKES
Experimental: A sugar conjugate microarray containing 98 sugar conjugates (Table 3) was prepared according to a known method using a non-contact microarray printing robot (MicroSys 4000; Genomic Solutions).

[2] = system: human IgG1; experiment: Glycan microarray probed with human IgG1 (control of Table 7); type: binding

Structure (SMILES)	Signal value, Clec10a-Fc [1]	Signal value, Clec10a-Fc with EDTA [1]	Signal value, human IgG1 [2]
CC(=O)N[C@@H]1[C@@H](O)[C@H](O[C@@H]2O[C@H](CO)[C@H](O)[C@H](O[C@]3(C(=O)O)C[C@H](O)[C@@H](NC(C)=O)[C@H]([C@H](O)[C@H](O)CO)O3)[C@H]2O)[C@@H](CO)O[C@H]1O [3′SLN]	7	0	0
CC(=O)N[C@H]1[C@H]([C@H](O)[C@H](O)CO)O[C@@](O[C@H]2[C@@H](O)[C@@H](CO)O[C@@H](O[C@H]3[C@H](O)[C@@H](O)[C@H](O)O[C@@H]3CO)[C@@H]2O)(C(=O)O)C[C@@H]1O [3′SL]	5	0	0
CC(=O)N[C@@H]1[C@@H](O[C@@H]2O[C@H](CO)[C@H](O)[C@H](O[C@]3(C(=O)O)C[C@H](O)[C@@H](NC(C)=O)[C@H]([C@H](O)[C@H](O)CO)O3)[C@H]2O)[C@H](O)[C@@H](CO)O[C@H]1O [3′SiaLec]	4	0	0
CC(=O)N[C@H]1[C@H]([C@H](O)[C@H](O)CO)O[C@@](OC[C@H]2O[C@@H](O[C@H]3[C@H](O)[C@@H](O)[C@H](O)O[C@@H]3CO)[C@H](O)[C@@H](O)[C@H]2O)(C(=O)O)C[C@@H]1O [6′SL]	1	0	0
CC(=O)N[C@H]1[C@@H](O[C@@H]2[C@@H](O)[C@H](O)O[C@H](CO)[C@@H]2O)O[C@H](CO)[C@H](O)[C@@H]1O [A-di]	1137	0	0
CC(=O)N[C@@H]1[C@@H](O)[C@H](O[C@@H]2O[C@H](CO)[C@H](O)[C@H](O[C@H]3O[C@H](CO)[C@H](O)[C@H](O)[C@H]3NC(C)=O)[C@H]2O[C@@H]2O[C@@H](C)[C@@H](O)[C@@H](O)[C@@H]2O)[C@@H](CO)O[C@H]1O [A]	0	0	0
CC(=O)N[C@@H]1[C@@H](O)[C@H](O)[C@@H](CO)O[C@H]1O [BGlcNAc]	0	0	205
CC(=O)N[C@@H]1[C@@H](O)[C@H](O[C@@H]2O[C@H](CO)[C@H](O)[C@H](O[C@H]3O[C@H](CO)[C@H](O)[C@H](O)[C@H]3O)[C@H]2O[C@@H]2O[C@@H](C)[C@@H](O)[C@@H](O)[C@@H]2O)[C@@H](CO)O[C@H]1O [B]	0	0	0
CC(=O)N[C@@H]1[C@@H](O[C@@H]2O[C@H](CO)[C@H](O)[C@H](O)[C@H]2O)[C@@H](O)[C@@H](CO[C@@H]2O[C@H](CO)[C@@H](O)[C@H](O)[C@H]2NC(C)=O)O[C@@H]1O [Core2]	4824	0	0
CC(=O)N[C@@H]1[C@@H](O[C@@H]2O[C@H](CO)[C@@H](O)[C@H](O)[C@H]2NC(C)=O)[C@@H](O)[C@@H](CO)O[C@@H]1O [Core3]	0	0	0
CC(=O)N[C@@H]1[C@@H](O[C@@H]2O[C@H](CO)[C@@H](O)[C@H](O)[C@H]2NC(C)=O)[C@@H](O)[C@@H](CO[C@@H]2O[C@H](CO)[C@@H](O)[C@H](O)[C@H]2NC(C)=O)O[C@@H]1O [Core4]	0	0	0
CC(=O)N[C@@H]1[C@@H](O[C@H]2O[C@H](CO)[C@H](O)[C@H](O)[C@H]2O)[C@@H](O)[C@@H](CO)O[C@@H]1O [Core8]	0	0	0
CC(=O)N[C@@H]1[C@@H](O[C@H]2O[C@H](CO)[C@H](O)[C@H](O)[C@H]2NC(C)=O)[C@@H](O)[C@@H](CO)O[C@H]1O [Forssman disaccharide]	0	0	0
C[C@@H]1O[C@@H](O[C@@H]2[C@@H](O)[C@@H](O)[C@@H](CO)O[C@H]2O)[C@@H](O)[C@H](O)[C@@H]1O [Fucα2Gal]	0	0	0
CC(=O)N[C@@H]1[C@@H](O[C@@H]2O[C@@H](C)[C@@H](O)[C@@H](O)[C@@H]2O)[C@H](O)[C@@H](CO)O[C@H]1O [Fucα3GlcNAc]	0	0	0
CC(=O)N[C@@H]1[C@@H](O)[C@H](O[C@@H]2O[C@@H](C)[C@@H](O)[C@@H](O)[C@@H]2O)[C@@H](CO)O[C@H]1O [Fucα4GlcNAc]	0	0	0
OC[C@H]1O[C@H](O[C@H]2C(O)O[C@H](CO)[C@H](O)[C@@H]2O)[C@H](O)[C@@H](O)[C@H]1O (stereo partly drawn) [Galα1-2Gal]	3	0	0
OC[C@H]1O[C@H](O[C@@H]2[C@@H](O)[C@H](O)O[C@H](CO)[C@@H]2O)[C@H](O)[C@@H](O)[C@H]1O [Galα1-3Gal]	144	0	0
CC(=O)N[C@H]1[C@H](O[C@@H]2[C@H](O)[C@@H](O)[C@H](O[C@H]3[C@H](O)[C@@H](O)[C@H](O)O[C@@H]3CO)O[C@@H]2CO)O[C@H](CO)[C@H](O)[C@@H]1O [Gα2]	0	0	0
CC(=O)N[C@@H]1[C@@H](O[C@@H]2O[C@H](CO)[C@H](O)[C@H](O)[C@H]2O[C@@H]2O[C@@H](C)[C@@H](O)[C@@H](O)[C@@H]2O)[C@H](O)[C@@H](CO)O[C@H]1O [H type1]	1	0	0
CC(=O)N[C@@H]1[C@@H](O)[C@H](O[C@@H]2O[C@H](CO)[C@H](O)[C@H](O)[C@H]2O[C@@H]2O[C@@H](C)[C@@H](O)[C@@H](O)[C@@H]2O)[C@@H](CO)O[C@H]1O [H type2]	0	0	0
CC(=O)N[C@@H]1[C@@H](O)[C@H](O[C@@H]2O[C@H](CO)[C@H](O)[C@H](O)[C@H]2NC(C)=O)[C@@H](CO)O[C@H]1O [LDN]	0	0	0
CC(=O)N[C@@H]1[C@@H](O)[C@H](O[C@@H]2O[C@H](CO)[C@H](O)[C@H](O)[C@H]2O)[C@@H](CO)O[C@H]1O [LN]	7	0	0
OC[C@H]1O[C@@H](O[C@H]2[C@H](O)[C@@H](O)[C@H](O)O[C@@H]2CO)[C@H](O)[C@@H](O)[C@H]1O [Lac]	4850	0	0
CC(=O)N[C@@H]1[C@@H](O[C@@H]2O[C@H](CO)[C@H](O)[C@H](O)[C@H]2O[C@@H]2O[C@@H](C)[C@@H](O)[C@@H](O)[C@@H]2O)[C@H](O[C@@H]2O[C@@H](C)[C@@H](O)[C@@H](O)[C@@H]2O)[C@@H](CO)O[C@H]1O [Leb]	0	0	0
